The results in this text go back to article PMC5575463, “The amino‐terminal tail of Hxt11 confers membrane stability to the Hxt2 sugar transporter and improves xylose fermentation in the presence of acetic acid” (Biotechnology and Bioengineering, 2017).

Assay [1] relates to T1, Chimeric Hxt11/2.
T1 construct: single-chain fusion: Hxt11 residues 1-54 replace Hxt2 residues 1-49, rest is Hxt2; untagged, pRS313-P7T7; expressed in S. cerevisiae DS68625 (hxt1-7, gal2 deleted)
Kind of assay: […] sugar uptake by yeast cells, filtration. In kind it is cell-based, Saccharomyces cerevisiae. The conditions noted are these: labelled compound, mineral medium, strain DS68625.

For assay [2], the system named is T1, Chimeric Hxt11/2. Kind of assay: […] sugar uptake by yeast cells, filtration. It is filed as cell-based, Saccharomyces cerevisiae. Conditions: labelled compound; 0.5-500 mM xylose, 1 min uptake, mineral medium, strain DS68625; Hxt2 numbering; read-out: K m (mM) / Xylose.

Where two headings read alike, the source gives them in different places.

On to `OC[C@H]1OC(O)[C@H](O)[C@@H](O)[C@@H]1O` (stereo partly drawn) [D-glucose], for which the Km with Chimeric Hxt11/2 [1] (0.1-500 mM glucose, 15 s uptake, read-out: K m (mM) / Glucose) worked out at 17.4 ± 3.8 mM.
In the case of `OC1OC[C@@H](O)[C@H](O)[C@H]1O` (stereo partly drawn) [D-xylose], the Km with Chimeric Hxt11/2 [2] turned out to be 57.3 ± 5.2 mM; with Chimeric Hxt11/2 [1] (0.5-500 mM xylose, 1 min uptake, read-out: K m (mM) / Xylose), 69 ± 9.1 mM.
